Experimental findings from ChEMBL document CHEMBL3593216, “Discovery of antitubercular 2,4-diphenyl-1H-imidazoles from chemical library repositioning and rational design” (2015) are described below.

In experiment [1] the test system is Mycobacterium tuberculosis. The experiment in a line: Antitubercular activity against Mycobacterium tuberculosis H37Rv ATCC 27294 incubated up to 7 days measured on day 7 by microplate Alamar Blue assay. The experiment is classed as functional. The note with it: H37Rv ATCC 27294, 168 h. (The colour change of resazurin is a common sign of viable cells or microbes.)

For experiment [2], the system named is Mycobacterium tuberculosis. The experiment in a line: Antitubercular activity against recombinant Mycobacterium tuberculosis H37Rv expressing Vibrio harveyii luciferase gene with acetamidase promoter assessed as prevention of metabolic recovery incubated for 10 days in anaerobic environment followed by 28 hrs recovery in aerobic environment by low-oxygen recovery assay. Type of experiment: functional.

Structures are written as SMILES. Values after ≈ are worked out from the molar mass of the structure shown.

On to `COc1ccc(-c2csc(Nc3ccc(C)cc3)n2)cc1`, for which, in experiment [1], the MIC90 (usually an inhibitory concentration at the 90% level, which refers to growth in some studies and to a panel of isolates in others) was determined as 15.6 µM (≈ 4.62 µg/mL).

The molecule `Cc1ccc(-c2nc(-c3ccccc3)c[nH]2)cc1` yielded an MIC90 in experiment [1] of 124 µM (≈ 29.1 µg/mL).

The molecule `COc1cccc(-c2c[nH]c(-c3ccccc3)n2)c1` had an MIC90 in experiment [1] of 88.4 µM (≈ 22.1 µg/mL).

Take `FC(F)(F)c1cccc(-c2c[nH]c(-c3ccccc3)n2)c1`: in experiment [1], the MIC90 came out at 37 µM (≈ 10.7 µg/mL).

Molecule `COc1ccc(-c2csc(Nc3cc(Cl)cc(Cl)c3)n2)cc1` had an MIC90 in experiment [1] of 13 µM (≈ 4.57 µg/mL).

The molecule `c1ccc(-c2c[nH]c(-c3ccncc3)n2)cc1` showed an MIC90 in experiment [1] of more than 128 µM.

`c1ccc(-c2c[nH]c(-c3ccccc3)n2)cc1` yielded an MIC90 in experiment [1] of 128 µM (≈ 28.1 µg/mL).

In the case of `COc1ccccc1-c1nc(-c2ccccc2)c[nH]1`, in experiment [1], the MIC90 was more than 128 µM.

In the case of `Oc1ccc(-c2nc(-c3ccccc3)c[nH]2)cc1`, in experiment [1], the MIC90 was more than 128 µM.

Consider `FC(F)(F)Oc1cccc(-c2nc(-c3ccccc3)c[nH]2)c1`, for which the MIC90 in experiment [1] was determined as 35.5 µM (≈ 10.8 µg/mL).

`COc1cccc(-c2nc(-c3ccccc3)c[nH]2)c1OC` came in with an MIC90 in experiment [1] of 55.2 µM (≈ 15.5 µg/mL).

For the molecule `Fc1cc(-c2nc(-c3cccc(C(F)(F)F)c3)c[nH]2)cc(C(F)(F)F)c1`, the MIC90 in experiment [1] was determined as 6 µM (≈ 2.25 µg/mL); in experiment [2], 17.6 µM.

As to `COc1cc(-c2nc(-c3cccc(C(F)(F)F)c3)c[nH]2)cc(C(F)(F)F)c1`, the values for the MIC90 in experiment [1] and in experiment [2] were 7.3 µM (≈ 2.82 µg/mL) and 63.7 µM, respectively.

On to `FC(F)(F)c1cccc(-c2c[nH]c(-c3cc(C(F)(F)F)cc(C(F)(F)F)c3)n2)c1`, for which the MIC90 in experiment [1] worked out at 7.7 µM (≈ 3.27 µg/mL); in experiment [2], 11.3 µM.

`Cc1[nH]c(-c2cccc(C(F)(F)F)c2)nc1-c1cccc(C(F)(F)F)c1`: the MIC90 in experiment [1] worked out at 14 µM (≈ 5.18 µg/mL).

Turning to `Cn1cc(-c2cccc(C(F)(F)F)c2)nc1-c1cccc(C(F)(F)F)c1`, the MIC90 came to 7.9 µM (≈ 2.93 µg/mL) in experiment [1] and 50.7 µM in experiment [2].

As for `Clc1cccc(-c2c[nH]c(-c3ccccc3)n2)c1`, in experiment [1], the MIC90 stood at 60.3 µM (≈ 15.4 µg/mL).

For the molecule `Clc1ccc(-c2c[nH]c(-c3ccccc3)n2)cc1`, the MIC90 in experiment [1] is 59.5 µM (≈ 15.2 µg/mL).

In experiment [1], `COc1ccc(-c2nc(-c3ccccc3)c[nH]2)cc1` displayed an MIC90 of 119 µM (≈ 29.9 µg/mL).

`COc1cccc(-c2nc(-c3ccccc3)c[nH]2)c1` came in with an MIC90 in experiment [1] of 73.7 µM (≈ 18.4 µg/mL).

The molecule `FC(F)(F)c1cccc(-c2nc(-c3ccccc3)c[nH]2)c1` came in with an MIC90 in experiment [1] of 30.6 µM (≈ 8.82 µg/mL).

In the case of `O=[N+]([O-])c1ccc(-c2c[nH]c(-c3ccccc3)n2)cc1`, the MIC90 in experiment [1] was more than 128 µM.

Turning to `O=[N+]([O-])c1cccc(-c2nc(-c3ccccc3)c[nH]2)c1`, in experiment [1], the MIC90 stood at 60.6 µM (≈ 16.1 µg/mL).

In the case of `COc1ccc(-c2c[nH]c(-c3ccccc3)n2)cc1`, in experiment [1], the MIC90 worked out at 82.4 µM (≈ 20.6 µg/mL).

`FC(F)(F)c1ccc(-c2c[nH]c(-c3ccccc3)n2)cc1` registered an MIC90 in experiment [1] of more than 128 µM.

`FC(F)(F)c1cccc(-c2c[nH]c(-c3ccc(Cl)cc3)n2)c1` had an MIC90 in experiment [1] of 29.8 µM (≈ 9.62 µg/mL).

For `Clc1cccc(-c2nc(-c3ccccc3)c[nH]2)c1`, in experiment [1], the MIC90 was found to be 60.4 µM (≈ 15.4 µg/mL).

For the molecule `Clc1ccc(-c2nc(-c3ccccc3)c[nH]2)cc1`, in experiment [1], the MIC90 turned out to be 59.8 µM (≈ 15.2 µg/mL).

In experiment [1], `c1ccc(-c2c[nH]c(-c3ccsc3)n2)cc1` displayed an MIC90 of 107 µM (≈ 24.3 µg/mL).

Turning to `FC(F)(F)c1ccc(-c2nc(-c3ccccc3)c[nH]2)cc1`, in experiment [1], the MIC90 was 48.9 µM (≈ 14.1 µg/mL).

For `FC(F)(F)c1cccc(-c2c[nH]c(-c3cccc(C(F)(F)F)c3)n2)c1`, the MIC90 in experiment [1] turned out to be 1.7 µM (≈ 0.606 µg/mL); in experiment [2], 25.4 µM.

In experiment [1], `c1ccc(-c2c[nH]c(C3CCCCC3)n2)cc1` came in with an MIC90 of 125 µM (≈ 28.2 µg/mL).

Regarding `NNC(=O)c1ccncc1` [ISONIAZID], the MIC90 in experiment [1] turned out to be 0.1 µM (≈ 0.0137 µg/mL).

In the case of `CO[C@H]1/C=C/O[C@@]2(C)Oc3c(C)c(O)c4c(O)c(c(/C=N/N5CCN(C)CC5)c(O)c4c3C2=O)NC(=O)/C(C)=C\C=C\[C@H](C)[C@H](O)[C@@H](C)[C@@H](O)[C@@H](C)[C@H](OC(C)=O)[C@@H]1C` [RIFAMPIN], the MIC90 in experiment [1] is 0.05 µM (≈ 0.0411 µg/mL).
